Test results taken from patent publication US20230321123A1, “INHIBITORS OF PSEUDOMONAS AERUGINOSA VIRULENCE FACTOR LasB” (Helmholtz-Zentrum Für Infektionsforschung GmbH, priority 2020, published 2023).

Tests used:
CYP1A = molecular target: T1, CYP1A (Homo sapiens, UniProt P05177); assay: CYP inhibition CYP1A; format: in vitro ADME
T1 sequence (P05177 2-516): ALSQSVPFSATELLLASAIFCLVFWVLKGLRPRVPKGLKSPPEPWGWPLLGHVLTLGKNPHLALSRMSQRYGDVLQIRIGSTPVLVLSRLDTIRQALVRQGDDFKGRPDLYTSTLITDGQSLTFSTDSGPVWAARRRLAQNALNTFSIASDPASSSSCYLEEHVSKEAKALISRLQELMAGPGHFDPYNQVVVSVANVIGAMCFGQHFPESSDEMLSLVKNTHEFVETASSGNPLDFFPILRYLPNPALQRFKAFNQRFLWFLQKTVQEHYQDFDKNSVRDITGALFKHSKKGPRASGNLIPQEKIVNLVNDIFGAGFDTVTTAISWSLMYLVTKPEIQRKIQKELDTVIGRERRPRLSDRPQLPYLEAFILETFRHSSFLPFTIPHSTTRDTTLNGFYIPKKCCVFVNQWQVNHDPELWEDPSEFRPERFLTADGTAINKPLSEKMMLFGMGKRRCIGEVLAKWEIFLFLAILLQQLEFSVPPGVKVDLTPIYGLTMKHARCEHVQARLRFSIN
From the text: (§1) As the compound of example 2 has shown an impressive activity in the in vitro LasB inhibition assay, high selectivity over a broad spectrum of human enzymes and no signs of cytotoxicity in vitro, it has been subjected to a more advanced safety screening (Table 9).

MMP-3 = MMP-3 (Homo sapiens, UniProt P08254); assay: Selectivity against human off-targets: MMP-3; format: biochemical; settings: read-out: Inhibition [%] MMP-3
From the text: (§2) The inhibition of zinc-containing human enzymes is described frequently for LasB inhibitors and poses a serious difficulty in the development of selective compounds. Particularly, the inhibition of matrix metalloproteases (MMPs) should be avoided. To further investigate this issue, three derivatives (the compounds of examples 1, 5 and 8) have been tested for their selectivity against several human off-targets, including six MMPs, ADAM17 (TACE), HDAC-3 and HDAC-8 (Table 4). The selectivity of the compounds is particularly high for MMPs and HDACs, whereas the inhibition of ADAM17 was considerably stronger.

Cytotoxicity A549 = format: cell-based; settings: human; A549
Experimental: (§3) The compounds of examples 1 and 5 were not toxic against the cell lines HepG2, HEK293 and A549 (Table 5). Additionally, the inhibitory effect against P. aeruginosa PA14 was evaluated to exclude an antibacterial effect of the compounds of the present invention. This is important as it was the aim to target virulence and not viability of the bacteria. […]

Cytotoxicity HepG2 = format: cell-based; settings: human; HepG2
Experimental: as §3

CYP2D6 = CYP2D6 (Homo sapiens, UniProt P10635); assay: CYP inhibition CYP2D6; format: in vitro ADME
From the text: as §1

MMP-1 = molecular target: T2, MMP-1 (Homo sapiens, UniProt P03956); assay: Selectivity against human off-targets: MMP-1; format: biochemical; settings: read-out: Inhibition [%] MMP-1
T2 sequence (P03956 100-469): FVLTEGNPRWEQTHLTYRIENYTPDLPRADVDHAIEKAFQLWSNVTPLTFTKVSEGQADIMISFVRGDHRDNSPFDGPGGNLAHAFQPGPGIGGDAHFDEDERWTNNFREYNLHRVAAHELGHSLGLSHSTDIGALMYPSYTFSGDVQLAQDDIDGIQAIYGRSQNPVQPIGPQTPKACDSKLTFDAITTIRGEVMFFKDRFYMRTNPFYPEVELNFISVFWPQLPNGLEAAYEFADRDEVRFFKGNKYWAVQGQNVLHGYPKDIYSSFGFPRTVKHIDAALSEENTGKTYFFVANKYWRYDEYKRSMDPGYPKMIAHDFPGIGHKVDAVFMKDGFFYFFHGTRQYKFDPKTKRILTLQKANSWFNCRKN
From the text: as §2

Sequence of MMP-3 (P08254 100-477): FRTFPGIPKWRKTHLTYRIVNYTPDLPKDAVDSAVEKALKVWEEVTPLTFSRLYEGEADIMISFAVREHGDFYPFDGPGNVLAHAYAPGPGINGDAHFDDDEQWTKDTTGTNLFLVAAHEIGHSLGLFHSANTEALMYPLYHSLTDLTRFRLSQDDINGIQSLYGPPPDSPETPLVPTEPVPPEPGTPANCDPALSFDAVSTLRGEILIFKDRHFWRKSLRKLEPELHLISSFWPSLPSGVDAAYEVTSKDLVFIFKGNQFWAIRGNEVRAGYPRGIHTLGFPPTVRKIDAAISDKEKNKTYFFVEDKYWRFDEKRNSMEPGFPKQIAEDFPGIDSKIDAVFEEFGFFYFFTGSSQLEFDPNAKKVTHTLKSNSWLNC
Sequence of CYP2D6 (P10635 whole entry): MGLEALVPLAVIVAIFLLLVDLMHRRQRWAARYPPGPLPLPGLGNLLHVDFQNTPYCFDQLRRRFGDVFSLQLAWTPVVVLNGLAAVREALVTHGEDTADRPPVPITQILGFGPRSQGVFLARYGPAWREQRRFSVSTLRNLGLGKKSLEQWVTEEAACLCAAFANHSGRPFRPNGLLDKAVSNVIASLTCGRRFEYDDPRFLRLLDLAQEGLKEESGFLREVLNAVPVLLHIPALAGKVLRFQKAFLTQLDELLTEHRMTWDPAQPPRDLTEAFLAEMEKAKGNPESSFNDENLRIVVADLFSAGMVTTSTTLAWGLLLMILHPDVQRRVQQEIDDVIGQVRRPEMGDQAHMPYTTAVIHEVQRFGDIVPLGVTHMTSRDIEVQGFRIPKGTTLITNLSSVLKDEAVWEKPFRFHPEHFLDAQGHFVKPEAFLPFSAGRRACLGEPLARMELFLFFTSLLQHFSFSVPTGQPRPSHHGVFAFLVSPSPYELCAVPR

## Cc1ccc(NC(=O)C(S)CC(C)C)cc1 (stereo not drawn) [Example 2, 2-Mercapto-4-methyl-N-(p-tolyl)pentanamide]
CYP1A
  IC50: > 25 µM
MMP-3
  inhibition at 100 µM: < 10%
Cytotoxicity A549
  IC50: > 100 µM
Cytotoxicity HepG2
  IC50: > 100 µM
CYP2D6
  IC50: 22.3 µM
MMP-1
  inhibition at 100 µM: < 10%
